Kd and KD data for twelve compounds are collected here from PMC8633346, “Engineering of a fluorescent chemogenetic reporter with tunable color for advanced live-cell imaging” (Nature Communications, 2021).

Structures are written as SMILES.

Assay [1] concerns the target T1, pFAST (Halorhodospira halophila, UniProt P16113, A30V/C69G/D97P/F96I/G21E/G25R/K17N/M100R/M109L/Q41L/Q99S/S117R/S72T/T101G/V83A/Y94W/Y98T).
T1 construct: gene pyp; engineered PYP variant; changes relative to FAST: K17N, G21E, G25R, A30V, Q41L, S72T, V83A, M95T, M109L, S117R (M95T restores T95 of PYP); N-terminal His-tag, E. coli Rosetta (DE3) pLys, Ni-NTA; FAST 14 kDa
T1 sequence (P16113 1-125 K17N/G21E/G25R/A30V/Q41L/C69G/S72T/V83A/Y94W/F96I/D97P/Y98T/Q99S/M100R/T101G/M109L/S117R): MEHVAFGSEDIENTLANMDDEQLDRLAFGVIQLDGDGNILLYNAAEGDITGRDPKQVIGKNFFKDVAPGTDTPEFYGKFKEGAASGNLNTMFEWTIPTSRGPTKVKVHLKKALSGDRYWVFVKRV
Description: fluorescence titration, one-site fit.

Assay [2] deals with T2, pFAST (Halorhodospira halophila, UniProt P16113, K17N/G21E/G25R/A30V/Q41L/C69G/S72T/V83A/Y94W/F96I/D97P/Y98T/Q99S/M100R/T101G/M109L/S117R).
T2 construct: gene pyp; engineered PYP variant; changes relative to FAST: K17N, G21E, G25R, A30V, Q41L, S72T, V83A, M95T, M109L, S117R (M95T restores T95 of PYP); N-terminal His-tag, E. coli Rosetta (DE3) pLys, Ni-NTA; FAST 14 kDa
T2 sequence (P16113 1-125 K17N/G21E/G25R/A30V/Q41L/C69G/S72T/V83A/Y94W/F96I/D97P/Y98T/Q99S/M100R/T101G/M109L/S117R): T1 sequence (P16113 1-125 K17N/G21E/G25R/A30V/Q41L/C69G/S72T/V83A/Y94W/F96I/D97P/Y98T/Q99S/M100R/T101G/M109L/S117R)
Description: fluorescence titration, one-site fit. Type of assay: binding. Conditions: PBS pH 7.4.

For the compound `COc1cc(C=C2SC(O)=NC2=S)cc(OC)c1O` [HBIR-3,5DOM, (4-hydroxy-3,5-dimethoxylbenzylidene)-4-thioxothiazolidin-2-one], in assay [1], binding was put at a Kd of 0.04 µM. In other words, the double-digit nanomolar range.

For `Cc1cc(C=C2SC(=S)NC2=O)cc(C)c1O` [HBR-3,5DM, 4-hydroxy-3,5-dimethylbenzylidene rhodanine], the Kd in assay [1] came to 0.01 µM.

Take `COc1cc(C=C2SC(=N)NC2=O)cc(OC)c1O` [HBP-3,5DOM, (4-hydroxy-3,5-dimethoxybenzylidene)-2-iminothiazolidin-4-one]: the Kd in assay [1] came to 1.9 µM.

In assay [1], `Cc1cc(C=C2OC(=O)NC2=O)cc(C)c1O` [HBO-3,5DM, (4-hydroxy-3,5-dimethylbenzylidene)oxazolidine-2,4-dione] gave a Kd of 2.4 µM.

In the case of `Cc1cc(C=C2OC(=O)NC2=O)ccc1O` [HBO-3M, (4-hydroxy-3-methylbenzylidene)oxazolidine-2,4-dione], the Kd in assay [1] came out at 0.43 µM.

The compound `Cc1cc(C=C2SC(=N)NC2=O)ccc1O` [HBP-3M, (4-hydroxy-3-methylbenzylidene)-2-iminothiazolidin-4-one] registered a Kd in assay [1] of 0.22 µM.

The compound `COc1cc(C=C2SC(=S)NC2=O)cc(OC)c1O` [HBR-3,5DOM, 4-hydroxy-3,5-dimethoxybenzylidene rhodanine] yielded a Kd in assay [1] of 0.06 µM. Compared with the last compound, the Kd is about 3.7-fold lower.

`Cc1cc(/C=C2\SC(=S)N(CC(=O)O)C2=O)cc(C)c1O` [HBRAA-3,5DM, 5-((4-hydroxy-3,5-dimethylbenzylidene)-4-oxo-2-thioxothiazolidin-3-yl) acetic acid] returned a dissociation constant Kd in assay [1] of 1.8 µM.

For the compound `COc1cc(/C=C2\SC(=O)NC2=O)cc(OC)c1O` [HBT-3,5DOM, (4-hydroxy-3,5-dimethoxybenzylidene)thiazolidine-2,4-one], the Kd in assay [1] amounted to 0.2 µM.

In the case of `Cc1cc(C=C2SC(=O)NC2=O)ccc1O` [HBT-3M, (4-hydroxy-3-methylbenzylidene)thiazolidine-2,4-dione], in assay [2], the KD result is reported as “KD) values of their assembly with pFAST are indicated into brackets”.

Regarding `Cc1cc(C=C2SC(=N)NC2=O)cc(C)c1O` [HBP-3,5DM, (4-hydroxy-3,5-dimethylbenzylidene)-2-iminothiazolidin-4-one], the Kd in assay [1] amounted to 0.15 µM.

In assay [1], `Cc1cc(C=C2SC(=O)NC2=O)cc(C)c1O` [HBT-3,5DM, (4-hydroxy-3,5-dimethylbenzylidene)thiazolidine-2,4-dione] registered an equilibrium dissociation constant (Kd) of 0.17 µM.
